Assay results as given in ChEMBL document CHEMBL5724914, “Linking interpersonal differences in gut microbiota composition and drug biotransformation activity” (2024).

How the values were obtained:
[1] = (§1) The drug is tested on Z-016 corresponding to mouse gut metagenome with ENA study accession number: PRJEB37062 and ENA sample accession number: ERS12561815 for biotransformation under anaerobic condition. The drug concentrations were measured over 9 timepoints collected between 0 and 24 hours of incubation by liquid-chromatography-coupled mass spectrometry (LC–MS); details: 2 µM
[2] = as §1, with “Z-025” for “Z-016”, “rabbit” for “mouse”, “ERS12561824” for “ERS12561815”; details: 2 µM
[3] = as §1, with “Z-018” for “Z-016”, “pig” for “mouse”, “ERS12561817” for “ERS12561815”; details: 2 µM
[4] = as §1, with “Z-019” for “Z-016”, “rat” for “mouse”, “ERS12561818” for “ERS12561815”; details: 2 µM
[5] = as §1, with “WLS-220” for “Z-016”, “human” for “mouse”, “ERS12561769” for “ERS12561815”; details: 2 µM
[6] = as §1, with “Z-017” for “Z-016”, “ERS12561816” for “ERS12561815”; details: 2 µM
[7] = as §1, with “Z-012” for “Z-016”, “to” for “to mouse gut”, “ERS12561812” for “ERS12561815”; details: 2 µM
[8] = as §1, with “Z-003” for “Z-016”, “pig” for “mouse”, “ERS12561803” for “ERS12561815”; details: 2 µM
[9] = as §1, with “Z-006” for “Z-016”, “ERS12561806” for “ERS12561815”; details: 2 µM
[10] = as §1, with “Z-005” for “Z-016”, “to” for “to mouse gut”, “ERS12561805” for “ERS12561815”; details: 2 µM
[11] = as §1, with “Z-027” for “Z-016”, “to” for “to mouse gut”, “ERS12561826” for “ERS12561815”; details: 2 µM
[12] = as §1, with “Z-001” for “Z-016”, “ERS12561801” for “ERS12561815”; details: 2 µM
[13] = as §1, with “Z-024” for “Z-016”, “pig” for “mouse”, “ERS12561823” for “ERS12561815”; details: 2 µM
[14] = human gut metagenome, 24 h, 2 µM
[15] = as §1, with “Z-021” for “Z-016”, “to” for “to mouse gut”, “ERS12561820” for “ERS12561815”; details: 2 µM
[16] = as §1, with “Z-004” for “Z-016”, “to” for “to mouse gut”, “ERS12561804” for “ERS12561815”; details: 2 µM
[17] = as §1, with “Z-013” for “Z-016”, “rabbit” for “mouse”, “ERS12561813” for “ERS12561815”; details: 2 µM
[18] = as §1, with “Z-002” for “Z-016”, “rabbit” for “mouse”, “ERS12561802” for “ERS12561815”; details: 2 µM
[19] = as §1, with “Z-029” for “Z-016”, “rat” for “mouse”, “ERS12561828” for “ERS12561815”; details: 2 µM
[20] = as §1, with “Z-026” for “Z-016”, “to” for “to mouse gut”, “ERS12561825” for “ERS12561815”; details: 2 µM
[21] = as §1, with “Z-020” for “Z-016”, “rabbit” for “mouse”, “ERS12561819” for “ERS12561815”; details: 2 µM
[22] = human gut metagenome, 24 h, 2 µM; remark: listed apart in the source
[23] = as §1, with “Z-014” for “Z-016”, “rat” for “mouse”, “ERS12561814” for “ERS12561815”; details: 2 µM
[24] = as §1, with “Z-007” for “Z-016”, “rat” for “mouse”, “ERS12561807” for “ERS12561815”; details: 2 µM
[25] = as §1, with “Z-009” for “Z-016”, “pig” for “mouse”, “ERS12561809” for “ERS12561815”; details: 2 µM
[26] = as §1, with “Z-023” for “Z-016”, “to” for “to mouse gut”, “ERS12561822” for “ERS12561815”; details: 2 µM
[27] = human gut metagenome, 24 h, 2 µM; remark: listed apart in the source
[28] = human gut metagenome, 24 h, 2 µM; remark: listed apart in the source
[29] = as §1, with “Z-028” for “Z-016”, “ERS12561827” for “ERS12561815”; details: 2 µM
[30] = human gut metagenome, 24 h, 2 µM; remark: listed apart in the source
[31] = human gut metagenome, 24 h, 2 µM; remark: listed apart in the source
[32] = as §1, with “Z-008” for “Z-016”, “to” for “to mouse gut”, “ERS12561808” for “ERS12561815”; details: 2 µM
[33] = as §1, with “Z-010” for “Z-016”, “to” for “to mouse gut”, “ERS12561810” for “ERS12561815”; details: 2 µM
[34] = as §1, with “Z-030” for “Z-016”, “ERS12561829” for “ERS12561815”; details: 2 µM
[35] = as §1, with “Z-011” for “Z-016”, “ERS12561811” for “ERS12561815”; details: 2 µM
[36] = as §1, with “Z-022” for “Z-016”, “ERS12561821” for “ERS12561815”; details: 2 µM
Note: call rule not given here.

Bacterial Biotransformation [1]: Compound metabolized
Bacterial Biotransformation [2]: Compound metabolized
Bacterial Biotransformation [3]: Compound metabolized
Bacterial Biotransformation [4]: Compound NOT metabolized
Bacterial Biotransformation [5]: Compound NOT metabolized
Bacterial Biotransformation [6]: Compound metabolized
Bacterial Biotransformation [7]: Compound metabolized
Bacterial Biotransformation [8]: Compound metabolized
Bacterial Biotransformation [9]: Compound metabolized
Bacterial Biotransformation [10]: Compound metabolized
Bacterial Biotransformation [11]: Compound metabolized
Bacterial Biotransformation [12]: Compound metabolized
Bacterial Biotransformation [13]: Compound metabolized
Bacterial Biotransformation [14]: Compound metabolized
Bacterial Biotransformation [15]: Compound metabolized
Bacterial Biotransformation [16]: Compound metabolized
Bacterial Biotransformation [17]: Compound metabolized
Bacterial Biotransformation [18]: Compound metabolized
Bacterial Biotransformation [19]: Compound metabolized
Bacterial Biotransformation [20]: Compound metabolized
Bacterial Biotransformation [21]: Compound metabolized
Bacterial Biotransformation [22]: Compound metabolized
Bacterial Biotransformation [23]: Compound metabolized
Bacterial Biotransformation [24]: Compound metabolized
Bacterial Biotransformation [25]: Compound metabolized
Bacterial Biotransformation [26]: Compound metabolized
Bacterial Biotransformation [27]: Compound metabolized
Bacterial Biotransformation [28]: Compound NOT metabolized
Bacterial Biotransformation [29]: Compound metabolized
Bacterial Biotransformation [30]: Compound metabolized
Bacterial Biotransformation [31]: Compound metabolized
Bacterial Biotransformation [32]: Compound metabolized
Bacterial Biotransformation [33]: Compound metabolized
Bacterial Biotransformation [34]: Compound metabolized
Bacterial Biotransformation [35]: Compound metabolized
Bacterial Biotransformation [36]: Compound metabolized
SMILES: CCN(CC)C(=O)/C(C#N)=C/c1cc(O)c(O)c([N+](=O)[O-])c1 [ENTACAPONE]
